Reference: US20070178458A1, “Methods of diagnosis and prognosis of ovarian cancer II” (priority 2003, published 2007)

What was measured:
MGC1136 expression = experiment: Change in MGC1136 expression after treatment with methylation inhibitor, quantitative RT-PCR; assay type: cell-based, human; settings: 1 μM for 72 hours, adjusted for GAPDH
Method: (§1) FIG. 5 is a graphical representation showing the change In expression of KIAA1983 in epithelial ovarian cancer cell lines following treatment with the methyl transferase inhibitor 5-AZA (1 μM) for 72 hours, as determined by quantitative RT-PCR. The non-transformed cell line HOSE 6-3 was used as a control. Ovarian cancer cell lines were IGROV1, TOV21 G, OV90 and CAOV3. The relative amount of KIAA1983 mRNA in each cell line before (filled) and after (unfilled) treatment with methylation inhibitor was determined by comparison to a standard housekeeping gene (GAPDH), and is expressed as a fold change in expression level following treatment.
FIG. 9 is a graphical representation showing MGC1136 expression in IGROV, TOV21G and CaOV3 cells, in the presence (+) or absence (−) of the methylation inhibitor 5AZA (1 μM 5AZA for 72 hours). MGC1136 expression is represented as a relative fold change in expression in each cell line following treatment with 5AZA, and adjusted for the level of the housekeeping gene GAPDH. Experiments were performed as described in the legend for FIG. 5.
However, expression of MGC1136 is not increased in TOV21 G cells (clear cell ovarian cancer) following treatment with the methylation inhibitor 5AZA. Thus, loss of MGC1136 expression by methylation of the MGC1136 promoter may be restricted to particular histological phenotypes of epithelial ovarian cancer.

KIAA1983 mRNA expression = experiment: Change in KIAA1983 expression after treatment with methyl transferase inhibitor, quantitative RT-PCR; assay type: cell-based, human; settings: 1 μM for 72 hours, relative to GAPDH
Method: as §1
Total RNA was isolated from the normal and tumour cell lines, reverse transcribed into cDNA and used as template in a quantitative PCR using a LightCycler system (Roche Diagnostics). The relative amount of each gene product was determined by comparison to a standard housekeeping gene (GAPDH).
Thus, KIAA1983 is susceptible to gene silencing by hypermethylation thereby contributing to its reduced expression in epithelial ovarian cancers.

Nc1ncn([C@H]2C[C@H](O)[C@@H](CO)O2)c(=O)n1 [5-AZA, 5-aza-2′deoxycytodine]
expression of MGC1136 following treatment (MGC1136 expression; CaOV3 cell line (serous epithelial ovarian cancer)): marked increase in expression of MGC1136 | expression of MGC1136 following treatment (MGC1136 expression; IGROV cell line (serous epithelial ovarian cancer)): marked increase in expression of MGC1136 | expression of MGC1136 following treatment (MGC1136 expression; TOV21 G cells (clear cell ovarian cancer)): not increased | expression of KIAA1983 mRNA following treatment (KIAA1983 mRNA expression; epithelial ovarian cancer cell lines having reduced expression of KIAA1983 (IGROV1, TOV21G, OV90, CAOV3)): removes the block in expression of KIAA1983 mRNA | expression of KIAA1983 following treatment (KIAA1983 mRNA expression; normal ovarian cells (non-transformed HOSE 6-3 control)): note modulated
